Data as given in patent publication US11376233B2 (AJOU UNIVERSITY INDUSTRY-ACADEMIC COOPERATION FOUNDATION, priority 2017, dated 2022).

What was measured:
catalase and SOD2 [1] = assay: Tissue immunohistostaining of cochlea (spiral ganglia, auditory hair cells) in noise-induced hearing loss animal model; format: in vivo, Balb/c mice; settings: immunohistochemistry, spiral ganglia (apex, middle, base) and auditory hair cells in cochlea; pretreated 50 mg/kg
Experimental: Confocal Laser Scanning Microscopes and immunostaining were performed for the morphological analysis of spiral ganglia and hair cells located in the organ of Corti in the cochlea in noise-induced hearing loss animal model of Example 1. […] The animal tissues were immobilized and embedded with paraffin to obtain tissue sections. Anti-oxidation-related protein antibodies were primarily attached to the tissue sections, fluorescent antibodies were secondarily attached thereto, and immunohistochemistry was performed to analyze the expression behavior of the anti-oxidation-related proteins. The antibodies were subjected to immunohistochemistry with the antioxidant factors, catalase (Abcam, ab1877, Cambridge, UK), SOD2 (Santa Cruz, Calif., USA), and DAPI (Invitrogen, Carlsbad, Calif.).

[2] = system: rat vascular smooth muscles; settings: in vitro; cited from earlier work
catalase and SOD2 [3] = assay: mRNA expression of antioxidant enzymes by quantitative real-time PCR in H2O2-treated auditory cells; format: cell-based; settings: pre-treated 1, 10, 25 and 50 μM for 1 hour, 250 μM H2O2 for 24 hours
Experimental: (§1) The mRNA expression was determined by quantitative real-time PCR after extraction of total RNA and synthesis of cDNA. Protein expression was observed by extracting total protein with RIPA buffer, separating proteins in the order of size by SDS-PAGE and then attaching catalase (catalase, Abcam, ab1877, Cambridge, UK)) and SOD2 (superoxide dismutase 2, Santa Cruz, Calif., USA) thereto.

catalase and SOD2 [4] = assay: Protein expression of antioxidant enzymes by Western blotting in H2O2-treated auditory cells; format: cell-based; settings: pre-treated 1, 10, 25 and 50 μM for 1 hour, 250 μM H2O2 for 24 hours
Experimental: as §1

[5] = system: peripheral arterial occlusion; settings: rat, injection of lauric acid; cited from earlier work
HEI-OC1 cells [6] = assay: Cytotoxicity of sarpogrelate by WST-1 analysis; format: cell-based; settings: 0.1, 1, 10 and 25 μM for 24 hours
Experimental: (§2) Auditory cell (HEI-OC1; House-Ear Institute-organ of Corti 1) lines expressing auditory genes were used, and the HEI-OC1 cells were cultured at 33° C. and under 10% CO2 in DMEM medium (Dulbecco's modified Eagle's Medium) containing a high concentration of glutamine, supplemented with 10% fetal bovine serum (FBS) and 25 U/ml of interferon gamma.

arterial thrombosis = settings: mouse vascular endothelial injury; rat polyethylene tube; cited from earlier work
platelet aggregation = settings: cited from earlier work
HEI-OC1 cells [7] = assay: Cytotoxicity and apoptosis caused by H2O2, WST-1 analysis; format: cell-based; settings: pretreatment 0.1, 1, 10 and 25 μM for 1 hour, then 500 μM H2O2 for 24 hours
Experimental: as §2, with “gamma. A noise-induced hearing loss cell line was established through treatment with H2O2 to produce reactive oxygen species (ROS) by oxidative stress during induction of hearing loss by noise.” for “gamma.”

## COc1cccc(CCc2ccccc2OCC(CN(C)C)OC(=O)CCC(=O)O)c1 (stereo not drawn) [sarpogrelate, 4-[2-(dimethylamino)-1-({2-[2-(3-methoxyphenyl)ethyl]phenoxy}methyl)ethoxy]-4-oxobutanoic acid]
Catalase and SOD2 [1]
  expression of SOD2: significantly increased
  expression of catalase: significantly increased
[2]
  contraction of vascular smooth muscles by serotonin: inhibiting the contraction
Catalase and SOD2 [3]
  mRNA expression of SOD2: increased
  mRNA expression of catalase: increased
Catalase and SOD2 [4]
  protein expression of SOD2: increased
  protein expression of catalase: increased
[5]
  onset of the condition in the peripheral arterial occlusion model: inhibits the onset of the condition
HEI-OC1 cells [6]
  cytotoxicity of sarpogrelate: not to cause cytotoxicity
Arterial thrombosis
  formation of thrombus in arterial thrombosis models: inhibit the formation of thrombus
Platelet aggregation
  platelet aggregation by collagen and secondary platelet aggregation by ADP or epinephrine: inhibited
HEI-OC1 cells [7]
  apoptosis of auditory cells caused by H2O2: inhibiting apoptosis
